Source: patent EP4806899A1, “FUSED RING DERIVATIVE, PREPARATION METHOD THEREFOR AND USE THEREOF IN MEDICINE” (Shanghai Qilu Pharmaceutical Research and Development …, priority 2023, dated 2025)

Key:
human CYP11B2 enzyme = target: T1, human CYP11B2 enzyme (Homo sapiens, UniProt P19099); experiment: Enzyme inhibition activity assay in G402 cells stably expressing human CYP11B2 (aldosterone production from 11-DOC, LC/MS); format: cell-based; conditions: 1 µM 11-DOC, 16 hours, aldosterone detected
T1 construct: the ORF of human CYP11B1 or CYP11B2 were transfected into G402 cells; expressed in transfected cells
T1 sequence (P19099 25-503): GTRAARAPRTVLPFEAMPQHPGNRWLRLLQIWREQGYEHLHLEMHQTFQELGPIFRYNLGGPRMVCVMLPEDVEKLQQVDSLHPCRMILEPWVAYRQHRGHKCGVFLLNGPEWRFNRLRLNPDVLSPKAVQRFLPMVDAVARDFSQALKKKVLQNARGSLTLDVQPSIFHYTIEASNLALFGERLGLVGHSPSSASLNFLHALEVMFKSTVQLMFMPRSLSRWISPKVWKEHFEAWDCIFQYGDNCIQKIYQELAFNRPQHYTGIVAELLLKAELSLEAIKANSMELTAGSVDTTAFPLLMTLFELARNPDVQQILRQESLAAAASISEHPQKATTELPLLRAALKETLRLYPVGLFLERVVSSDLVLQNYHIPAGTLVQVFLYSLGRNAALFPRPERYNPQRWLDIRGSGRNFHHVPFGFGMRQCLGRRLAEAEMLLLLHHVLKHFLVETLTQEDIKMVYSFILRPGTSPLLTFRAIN
How it was run: (§1)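 G402 cells stably expressing human CYP11B2 or CYP11B1, preincubated 1 h with inhibitor in DMEM/F12 plus 2.5% charcoal-stripped FCS, then 16 h with 1 µM 11-DOC or 1 µM 11-DC. Aldosterone or cortisol quantified by LC/MS; IC50 from four-parameter logistic fit versus uninhibited control.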

human CYP11B1 enzyme = target: T2, human CYP11B1 enzyme (Homo sapiens, UniProt P15538); experiment: Enzyme inhibition activity assay in G402 cells stably expressing human CYP11B1 (cortisol production from 11-DC, LC/MS); format: cell-based; conditions: 1 µM 11-DC, 16 hours, cortisol detected
T2 construct: the ORF of human CYP11B1 or CYP11B2 were transfected into G402 cells; expressed in transfected cells
T2 sequence (P15538 25-503): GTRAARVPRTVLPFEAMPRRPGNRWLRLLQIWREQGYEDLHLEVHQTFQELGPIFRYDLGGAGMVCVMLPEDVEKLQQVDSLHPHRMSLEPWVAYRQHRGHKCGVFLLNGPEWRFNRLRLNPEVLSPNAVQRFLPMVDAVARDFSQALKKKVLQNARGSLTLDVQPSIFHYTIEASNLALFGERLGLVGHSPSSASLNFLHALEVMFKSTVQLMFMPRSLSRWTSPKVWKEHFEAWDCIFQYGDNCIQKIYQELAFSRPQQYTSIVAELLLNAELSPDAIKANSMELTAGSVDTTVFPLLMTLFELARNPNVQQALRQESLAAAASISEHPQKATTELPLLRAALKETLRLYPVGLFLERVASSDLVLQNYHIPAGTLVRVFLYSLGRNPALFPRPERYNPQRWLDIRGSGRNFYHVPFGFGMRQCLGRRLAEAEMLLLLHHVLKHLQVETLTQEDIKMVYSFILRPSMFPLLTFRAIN
How it was run: as §1

[1] = Pharmacokinetic determination in monkeys after gavage administration (P.O.); format: in vivo, Cynomolgus monkeys (Macaca fascicularis); conditions: cynomolgus monkey, po, 1 mg/kg, plasma
Procedure: Cynomolgus monkeys (Macaca fascicularis) were used as test animals to study the pharmacokinetic behavior of the compounds of the present disclosure in plasma following gavage administration (P.O.). Plasma samples were collected at specific time points, compound concentrations in plasma were detected by LC-MS/MS, and pharmacokinetic parameters were calculated to reflect the pharmacokinetics in cynomolgus monkeys.
Cynomolgus monkeys, male, Ankaiyibo (Zhanjiang) Biotechnology Co., Ltd.
After administration to cynomolgus monkeys, venous blood samples of 0.3 mL were collected at 0.25, 0.5, 1, 2, 4, 8, and 24 hours and placed in EDTA-K2 test tubes. Plasma was separated by centrifugation at 4 °C, 4000 g for 5 minutes and stored at -80 °C.
• 1) 50 µL of plasma sample was precipitated by adding 200 µL of acetonitrile, vortex mixed, and centrifuged for 15 minutes. • 2) The processed supernatant was diluted with water and analyzed by LC/MS/MS to determine the concentration of the test compound.
Pharmacokinetic parameters were calculated using WinNonlin 8.3. Cmax represents the maximum plasma concentration, T1/2 represents the terminal elimination half-life, MRTInf represents the mean residence time, and AUC represents the area under the plasma concentration-time curve. Table 6 Pharmacokinetic Parameters of the Compounds of the Present Disclosure in Monkeys

IC50 (human CYP11B2 enzyme) | IC50 (human CYP11B1 enzyme) | Cmax ([1]; in vivo) | MRT inf ([1]; in vivo) | half-life ([1]; in vivo) | AUC(0-t) at 24 h ([1]; in vivo, read-out: AUC0-24) | Cmax ([1]; male) | MRT inf ([1]; male) | half-life ([1]; male) | AUC(0-t) ([1]; male, read-out: AUC0-24) | SMILES
12.3 nM | 3680 nM | 1600 nM | 8.77 h | 7.44 h | 12.8 µM·h | – | – | – | – | CCC(=O)N[C@@H]1CCOc2c(-c3ccc4c(c3)CCC(=O)N4C)cncc21 [Compound A02-P2]
11.1 nM | 2110 nM | – | – | – | – | 1140 nM | 13 h | 10.5 h | 13.5 µM·h | [2H]C([2H])([2H])OC(=O)N[C@@H]1CCOc2c(-c3cc(F)c4c(ccc(=O)n4C)c3)cncc21 [Compound A50]
